# Measurements: patent US6676950B2, “Neurokinin receptor antagonists and methods of use thereof for inhibiting HIV infection” (The Children's Hospital of Philadelphia, priority 2001, dated 2004)
# How the values were obtained:
# HIV Bal strain [1] = assay: HIV gag mRNA in infected MDM by RT-PCR / real time RT-PCR; format: cell-based; conditions: 12 days after infection
# Description: HIV Infection: After 2 h incubation with or without the reagents described above, the cells were infected with equal amounts of cell-free HIV based on p24 antigen content (20 ng/10^6 cells) overnight, and then washed to remove unbound virus. Fresh media containing SP and/or CP-96,345 or anti-SP antibody were added to the MDM as described above. The culture media and the reagents were replaced twice weekly. The culture supernatants were harvested for HIV reverse transcriptase (RT) activity determinations. After HIV infection, the MDM were incubated for 8 to 12 days. At the termination of the experiments, cellular RNA was extracted for assessment of HIV gag gene expression using RT-PCR or real time RT-PCR assays.
# (§1) Total RNA was isolated from human peripheral blood MDM (10^6 cells) using Tri-Reagent (Molecular Research Center, Cincinnati, Ohio) as we previously reported (16).
# Reverse transcription: Total RNA (1 μg) was reverse transcribed using Reverse Transcription System (Promega, Madison, Wis.) with the specific primers (antisense) for HIV gag (5′-[…]-[…]-3′; SEQ ID NO: 1) (27) or CCR5 (5′-[…]-3′; SEQ ID NO: 2) (32) for 1 h at 42° C. RT reactions was terminated by incubating the reaction mixture at 99° C. for 5 min and then kept at 4° C. The resulting cDNA was used as a template for PCR amplification or real time PCR quantification. […]
# IL-6 = assay: LPS-stimulated IL-6 production in MDM by ELISA; format: cell-based, human; conditions: 10^−9 to 10^−7M; LPS 1 ng/ml; 24 h
# Description: In order to determine the role of CP-96,345 in the regulation of cytokine secretion, 7-day-cultured MDM were incubated with or without CP-96,345 (10^−9 to 10^−7M) and/or LPS (1 ng/ml) for 24 h. The culture supernatants were collected to determine TNF-A and IL-6 levels by ELISA. The ELISA kits were purchased from Endogen, Inc. (Woburn, Mass.).
# HIV Bal strain [2] = assay: HIV-induced syncytia formation in MDM; format: cell-based; conditions: 10^−7M; 12 days after infection; light microscope
# Description: Syncytia formation: To study the effect of neuropeptide antagonists on HIV-induced syncytia formation in MDM, 7-day-cultured macrophages were incubated in the presence or absence of CP-96,345 (10^−7M) for 2 h and then infected with HIV Bal strain. MDM which were neither incubated with CP-96,345 nor infected with HIV were used as a cell culture control. The morphology of HIV-induced syncytia formation was observed and photographed by a light microscopy (X 400) 12 days after HIV infection.
# R5X4 strain (89.6) = assay: HIV RT activity in MDM infected with R5X4 strain; format: cell-based; conditions: 8 days after infection
# Description: Based upon their differential use of the major HIV co-receptors, HIV isolates have been referred to as R5, X4 or R5X4 strains, respectively (29). The M-tropic (macrophage-tropic) R5 prototype strains (Bal and ADA), dual tropic strain (89.6) and X4 primary isolate (UG024), were obtained from the NIH AIDS Reagent Program. Primary M-tropic isolates (BL-6 and CSF-6) were isolated from the blood and cerebrospinal fluid cells, respectively, of a subject with AIDS. […] The cells were also incubated with SP and/or anti-SP antibody. In this case, SP was incubated with (1:1000 dilution in 10% FCS DMEM) or without anti-SP antibody at room temperature for 10 min and then the mixture was added to the cell cultures for 2 h. When the cells were treated with the combination of CP-96,345 and SP, or CP-96,345, SP and anti-SP antibody, CP-96,345 was incubated with the cell culture for 10 min and then SP was added to the MDM or CP-96,345, SP and anti-SP (1:1000 in 10% FCS DMEM) were incubated for 10 min at room temperature and the mixture was incubated with the MDM for 2 h before infection with HIV. Untreated MDM served as controls. The cells were treated prior to, during, and throughout the infection. […]
# CCR5 mRNA = CCR5 mRNA expression in MDM by RT-PCR / real-time RT-PCR; format: cell-based, human; conditions: for relative CCR5 mRNA level (real-time RT-PCR): 4 hours
# Description: as §1
# Reverse transcription: Total RNA (1 μg) was reverse transcribed using Reverse Transcription System (Promega, Madison, Wis.) with the specific primers (antisense) for HIV gag (5′-[…]-[…]-3′; SEQ ID NO: 1) (27) or CCR5 (5′-[…]-3′; SEQ ID NO: 2) (32) for 1 h at 42° C. RT reactions was terminated by incubating the reaction mixture at 99° C. for 5 min and then kept at 4° C. The resulting cDNA was used as a template for PCR amplification or real time PCR quantification.
# Polymerase chain reaction (PCR) analysis: PCR amplification of CCR5 and HIV gag cDNA was performed with one tenth of the cDNA for 35 cycles (CCR5) (32) or 40 cycles (gag) (27) using AmpliTaq Gold (Perkin ElmerCetus, Foster City, Calif.) in a GeneAmp PCR System 2400 (Perkin Elmer-Cetus). β-Actin was used as a control to monitor the amount and integrity of RNA in each sample (Clontech, Palo Alto, Calif.). Real time PCR was performed with one tenth of cDNA using ABI Prism 7700 Sequence Detection System (Perkin Elmer). The reaction mixture contained 0.25 mM of dNTPs, AmpliTaq Gold (1.5 U), 5 mM of MgCl2, 50 pmole of each of the two primers (SK38: 5′-[…]-3′(SEQ ID NO: 3); SK39: 5′-[…]-3′; SEQ ID NO: 4), 20 pmole of the molecular beacon probe (SK19: 5′[…]-3′; SEQ ID NO: 5) labeled with FAM (a fluorophore) at its 5′ end and DABCYL (a quencher) at the 3′end. The cycle conditions were 95° C. 10 min followed by 40 cycles of 95° C. 15 sec and 60° C. 1 min. The known amounts of HIV DNA isolated from ACH-2 cells were used as standard controls. All standards and samples were run in duplicates. HIV gag, CCR5, β-Actin primer pairs and the probe (SK19) were synthesized by Integrated DNA Technologies, Inc. (Coralville, Ind.).
SMILES,HIV gag mRNA expression (RT-PCR) (HIV Bal strain [1]; 10^−11 to 10^−7 M),HIV gag gene mRNA copy numbers (real time RT-PCR) (HIV Bal strain [1]; same samples),IL-6 production in MDM (IL-6),giant syncytia formation induced by HIV Bal strain infection (HIV Bal strain [2]),"replication of R5X4 strain 89.6 (HIV RT activity) (R5X4 strain (89.6); CP-96,345 10^−7M)","CCR5 mRNA in MDM (RT-PCR) (CCR5 mRNA; 10^−8 to 10^−6M, 3 h)","relative CCR5 mRNA level (real-time RT-PCR) (CCR5 mRNA; CP-96,345 10^−7 M to 10^−6 M)",replication of R5X4 strain (HIV RT activity) (R5X4 strain (89.6); R-113281 10^−6 M),relative CCR5 mRNA level (real-time RT-PCR) (CCR5 mRNA; R-113281 10^−8 M to 10^−6 M)
"COc1ccccc1CN[C@H]1C2CCN(CC2)[C@H]1C(c1ccccc1)c1ccccc1 [CP-96,345, [2S,3S)-cis-2-(diphenylmethyl)-N-[(2-methoxyphenyl)-methyl]-1-azabicyclo [[2.2.2]-octan-3-amine]]",potently inhibited,significantly suppress,not affected,failed to develop the giant syncytia,inhibited to a lesser extent,down-regulated,significantly down-regulated,–,–
COc1cc(C(=O)N2CCO[C@](CCN3CCC4(CC3)c3ccccc3C[S@+]4[O-])(c3ccc(Cl)c(Cl)c3)C2)cc(OC)c1OC.Cl [R-113281],–,–,–,–,–,–,–,inhibited to a lesser extent,significantly down-regulated
